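Protocol summary: plate cells (96-well), add compound at 5 concentrations, incubate 48 h, interpolate endpoints linearly. GI50 marks 50% less growth.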 Active and inactive are the calls of the source. No stated cut-off is given here; in the data, active = GI50 up to about 1.1 µM and inactive = higher.
What was measured:
Assay in all cases: inhibition of tumour cell growth, NCI panel, 48 h
[1] = tested on: OVCAR-8
[2] = tested on: SN12C
[3] = tested on: HT-29
[4] = tested on: Malme-3M
[5] = tested on: IGROV-1
[6] = tested on: SNB-19
[7] = tested on: COLO 205
[8] = tested on: CAKI-1
[9] = tested on: SK-MEL-2
[10] = tested on: U-251
[11] = tested on: UACC-62
[12] = tested on: NCI-H522
[13] = tested on: RXF 393
[14] = tested on: NCI-H23
[15] = tested on: SF-295
[16] = tested on: SNB-75
[17] = tested on: K562
[18] = tested on: NCI-H460
[19] = tested on: LOX IMVI
[20] = tested on: A549

Measured: GI50

CNC(=S)Nc1sc2c(c1C#N)CCCC2
inactive: [1] > 75 µM | [2] > 75 µM | [3] > 75 µM | [4] > 75 µM | [5] > 75 µM | [6] > 75 µM | [7] > 75 µM | [8] > 75 µM | [9] > 75 µM | [10] > 75 µM | [11] > 75 µM | [12] > 75 µM | [13] > 75 µM | [14] > 75 µM | [15] > 75 µM | [16] > 75 µM | [17] > 75 µM | [18] > 75 µM | [19] > 75 µM

CCOC(=O)N1C=NC23C(c4ccccc4)C(c4ccccc4)C12C(=O)N(C)C(=O)N3C (centres undefined)
inactive: [1] > 100 µM | [2] > 100 µM | [3] > 100 µM | [4] > 100 µM | [5] > 100 µM | [6] > 100 µM | [7] > 100 µM | [8] > 100 µM | [9] > 100 µM | [10] > 100 µM | [11] > 100 µM | [12] > 100 µM | [13] 16.3 µM | [14] > 100 µM | [15] > 100 µM | [16] > 100 µM | [17] > 100 µM | [18] > 100 µM | [20] > 100 µM | [19] > 100 µM

SC1=Nc2ccccc2-c2nc(-c3ccccc3)cc(-c3ccc(Br)cc3)c2C1
inactive: [3] 2.07 µM | [4] 2.59 µM | [5] 1.22 µM | [6] 1.21 µM | [7] 2.66 µM | [8] 1.5 µM | [9] 6.47 µM | [11] 2.26 µM | [12] 1.68 µM | [13] 1.7 µM | [14] 2.65 µM | [15] 1.89 µM | [16] 1.26 µM | [17] 2.9 µM | [20] 2.32 µM | [19] 2.99 µM
active: [1] 1.1 µM | [2] 0.791 µM | [10] 0.982 µM | [18] 0.859 µM

Cn1c(=O)c(-c2ccccc2)c(N=[N+]=[N-])c2ccccc21
inactive: [1] 49.3 µM | [2] 95.9 µM | [3] 23.5 µM | [4] 30.9 µM | [5] > 100 µM | [6] > 100 µM | [7] 44 µM | [8] 29.4 µM | [10] 34.8 µM | [11] 42.3 µM | [12] 26 µM | [13] 80.2 µM | [14] 38.7 µM | [15] 47.9 µM | [16] 4.46 µM | [17] 34.8 µM | [18] 39.4 µM | [20] 67.8 µM

CC1CC[P+](c2ccccc2)(c2ccccc2)c2c1ccc1ccccc21 (centres undefined)
active: [12] 0.946 µM | [17] 0.589 µM
inactive: [1] 1.84 µM | [2] 2.49 µM | [3] 2.28 µM | [4] 5.96 µM | [6] 2.44 µM | [8] 6.75 µM | [9] 1.63 µM | [11] 2.51 µM | [13] 9.08 µM | [14] 1.57 µM | [15] 3.5 µM | [16] 2.37 µM | [18] 2 µM | [20] 4.83 µM | [19] 2.33 µM

Cc1cc2c(cc1C)[n+]([O-])c(C#N)c(Cl)[n+]2[O-]
inactive: [1] 15.3 µM | [2] 13.6 µM | [3] 4.44 µM | [4] 12.9 µM | [5] 10.6 µM | [6] 34.3 µM | [7] 6.92 µM | [8] 6.46 µM | [9] 17.4 µM | [10] 13.8 µM | [11] 11.7 µM | [12] 11 µM | [13] 13.2 µM | [14] 11.7 µM | [15] 23.7 µM | [16] 1.88 µM | [17] 10.3 µM | [18] 11.7 µM | [20] 18.6 µM | [19] 12.1 µM

CCCCCCCCCCCCCC(=O)OC1C(O)C(CO)OC(OC)C1NC(=O)N(CCCl)N=O (centres undefined)
inactive: [1] 43.6 µM | [2] 37 µM | [3] 56.6 µM | [4] > 100 µM | [5] > 100 µM | [6] 23.7 µM | [7] > 100 µM | [8] > 100 µM | [9] > 100 µM | [10] 25.6 µM | [11] 5.06 µM | [12] 72.9 µM | [13] 47 µM | [14] 28.6 µM | [15] 29 µM | [16] 38.6 µM | [17] > 100 µM | [18] 18.7 µM | [20] 83.9 µM | [19] 22.5 µM

CC(C)=CCC/C(C)=C/C=C/C(C)=C/C1C[C@@]2(C(O)O1)[C@H](CCCO)/C(=C(/C)C=O)CC[C@]2(C)O (some centres undefined)
inactive: [1] 22 µM | [2] 15.6 µM | [3] 16.4 µM | [4] 4.59 µM | [5] 22.3 µM | [6] 19.1 µM | [8] 11.6 µM | [9] 18.6 µM | [10] > 10 µM | [12] 19.5 µM | [13] 18.6 µM | [14] > 10 µM | [15] 11.4 µM | [16] 51.9 µM | [17] 8.89 µM | [18] 6.64 µM | [20] 7.8 µM | [19] 11.7 µM
active: [7] 1.08 µM

COc1ccc(-c2nc3ccc([N+](=O)[O-])cc3c(=O)[nH]2)cc1
inactive: [1] 21.1 µM | [2] 66.4 µM | [3] > 100 µM | [5] 25.1 µM | [6] 20.4 µM | [7] > 100 µM | [8] 28.8 µM | [9] 30.3 µM | [10] 24.6 µM | [11] 37.7 µM | [12] 26.9 µM | [13] 26.4 µM | [14] 29.3 µM | [15] 23.8 µM | [16] 12.7 µM | [17] > 100 µM | [18] > 80 µM | [20] 53.2 µM | [19] 30.5 µM

C1CSCCSCSCCS1
inactive: [1] > 100 µM | [2] > 100 µM | [3] > 100 µM | [5] > 100 µM | [6] > 100 µM | [7] > 100 µM | [8] > 100 µM | [9] > 100 µM | [10] > 100 µM | [11] > 100 µM | [12] > 100 µM | [13] > 100 µM | [14] > 100 µM | [15] > 100 µM | [16] 48.3 µM | [18] > 100 µM | [20] > 100 µM | [19] > 100 µM

C[C@@H]1CC[C@H]2[C@H]1[C@H]1[C@@H](CC[C@]2(C)N=C=S)C1(C)C
inactive: [1] 41.7 µM | [2] 19.6 µM | [3] 19.9 µM | [4] 22.5 µM | [5] 45 µM | [6] > 10 µM | [7] 18.5 µM | [8] 37.8 µM | [9] 22.8 µM | [10] 16.7 µM | [11] 21.8 µM | [13] 15.5 µM | [14] 29.5 µM | [15] 21.4 µM | [16] 50.5 µM | [17] 16.2 µM | [18] 20.4 µM | [19] 59.4 µM

C#Cc1cccc(N2C(=O)c3c(c(-c4ccccc4)c(-c4ccc(Cc5ccc(-c6c(-c7ccccc7)c7c(c(-c8ccccc8)c6-c6ccccc6)C(=O)N(c6cccc(C#C)c6)C7=O)cc5)cc4)c(-c4ccccc4)c3-c3ccccc3)C2=O)c1
inactive: [1] 31.5 µM | [2] 20.7 µM | [3] 51.4 µM | [4] 45 µM | [5] 12.6 µM | [6] 40 µM | [7] 27 µM | [9] 57.9 µM | [10] 33 µM | [11] 5.6 µM | [12] > 100 µM | [13] 15.9 µM | [14] 31.2 µM | [15] 37.8 µM | [16] 16.3 µM | [17] 16.9 µM | [18] 43.2 µM | [20] 24.4 µM

c1cncc(O[Si](Oc2cccnc2)(Oc2cccnc2)Oc2cccnc2)c1
inactive: [1] > 100 µM | [2] > 100 µM | [3] > 100 µM | [4] > 100 µM | [5] > 100 µM | [6] > 100 µM | [7] > 100 µM | [8] > 100 µM | [9] > 100 µM | [10] > 100 µM | [11] > 100 µM | [13] > 100 µM | [14] > 100 µM | [15] > 100 µM | [16] > 100 µM | [18] > 100 µM | [20] > 100 µM | [19] > 100 µM

N#Cc1ccc(C2Oc3ccc(Cl)cc3C=C2[N+](=O)[O-])cc1 (centres undefined)
active: [7] 0.74 µM | [17] 0.354 µM | [19] 1.04 µM
inactive: [1] > 10 µM | [2] 1.31 µM | [3] 2.4 µM | [4] 2.11 µM | [5] 1.61 µM | [6] 2.67 µM | [8] 1.52 µM | [9] 1.74 µM | [10] 1.74 µM | [11] 1.63 µM | [12] 1.34 µM | [13] 4.99 µM | [14] 1.48 µM | [15] 2.87 µM | [16] 1.47 µM | [18] 2.22 µM | [20] 1.85 µM

From ChEMBL document CHEMBL1201862, “PubChem BioAssay data set” (2004)
